From the NIST ThermoML archive (doi:10.1016/j.jct.2013.10.034)

Experiment: excess molar enthalpy (molar enthalpy of mixing); xn = mol fraction of the nth substance listed
Details: 298.15 K, 100 kPa, Liquid, Calvet calorimetry

CCCC[N+]1(C)CCCCC1.N#C[N-]C#N [1-butyl-1-methylpiperidinium dicyanamide] + O
Details	excess molar enthalpy [kcal/mol]
x1 = 0.0639	-0.0355
x1 = 0.0706	-0.0403
x1 = 0.0846	-0.0509
x1 = 0.101	-0.0634
x1 = 0.1186	-0.0769
x1 = 0.1379	-0.0917
x1 = 0.1607	-0.109
x1 = 0.1873	-0.127
x1 = 0.2173	-0.145
x1 = 0.249	-0.16
x1 = 0.2797	-0.172
x1 = 0.3103	-0.179
x1 = 0.3414	-0.183
x1 = 0.371	-0.185
x1 = 0.4062	-0.184
x1 = 0.4376	-0.181
x1 = 0.4741	-0.176
x1 = 0.5173	-0.167
x1 = 0.5418	-0.162
x1 = 0.5687	-0.155
x1 = 0.5984	-0.146
x1 = 0.6314	-0.136
x1 = 0.6683	-0.124
x1 = 0.6951	-0.115
x1 = 0.7241	-0.105
x1 = 0.7557	-0.0942
x1 = 0.7902	-0.0816
x1 = 0.8081	-0.0749
x1 = 0.8268	-0.0677
x1 = 0.8465	-0.0603
x1 = 0.8671	-0.0529
x1 = 0.8887	-0.0446
x1 = 0.9114	-0.0354
x1 = 0.9354	-0.0256
x1 = 0.9606	-0.0152
x1 = 0.9872	-0.00537

CCCC[N+]1(C)CCCC1.N#CN=C=[N-] [1-butyl-1-methylpyrrolidinium dicyanamide] + O
Details	excess molar enthalpy [kcal/mol]
x1 = 0.0674	-0.0479
x1 = 0.0744	-0.0542
x1 = 0.0892	-0.0681
x1 = 0.1064	-0.0843
x1 = 0.1248	-0.102
x1 = 0.145	-0.121
x1 = 0.1688	-0.142
x1 = 0.1964	-0.164
x1 = 0.2275	-0.185
x1 = 0.2604	-0.203
x1 = 0.2921	-0.215
x1 = 0.3236	-0.223
x1 = 0.3554	-0.227
x1 = 0.3857	-0.228
x1 = 0.4217	-0.225
x1 = 0.4535	-0.22
x1 = 0.4906	-0.212
x1 = 0.5342	-0.2
x1 = 0.5589	-0.192
x1 = 0.5859	-0.183
x1 = 0.6157	-0.172
x1 = 0.6486	-0.159
x1 = 0.6853	-0.144
x1 = 0.7119	-0.132
x1 = 0.7406	-0.119
x1 = 0.7718	-0.106
x1 = 0.8057	-0.0907
x1 = 0.8233	-0.0828
x1 = 0.8417	-0.0752
x1 = 0.8609	-0.0662
x1 = 0.881	-0.0564
x1 = 0.9021	-0.046
x1 = 0.9243	-0.0352
x1 = 0.9475	-0.0238
x1 = 0.9719	-0.0113
x1 = 0.9976	-0.000599
